In patent US7071218B2, “N-substituted heterocycles for the treatment of hypercholesteremia, dyslipidemia and other metabolic disorders; cancer, and other diseases” (Incyte San Diego Incorporated, priority 2001, dated 2006):

Legend:
3T3-L1 cells = test: 3T3-L1 adipocyte differentiation (lipid content), alone or with rosiglitazone (BRL49653); format: cell-based, mouse; details: 7 days of treatment; for lipid accumulation / differentiation of 3T3-L1 cells by the compound alone: 1e-10M to 1e-5M; for inhibition of adipocyte differentiation / lipid accumulation induced by rosiglitazone (BRL49653): in combination with rosiglitazone
From the text: The mouse preadipocyte cell line 3T3-L1 has been extensively used to study adipocyte differentiation. Upon stimulation with differentiating agents, preadipocytes typically undergo one cell cycle expansion and then they are growth arrested and dramatically change their shape to become more rounded cells, loaded with lipids, in a fashion closely reflecting adipogenesis in vivo. In this well-known process of differentiation, peroxisome proliferator activated receptor gamma (PPARγ) and retinoid X receptor (RXR) play a key role. PPARγ binds as an obligatory heterodimer with RXR to specific responsive sequences in the promoter region of target genes. In the particular case of PPARγ/RXR heterodimers, both receptors can be activated via their specific ligands. As a consequence of such activation, adipocyte-specific genes are turned on (C/EBP, aP2, LPL, adipsin, etc) and adipocyte differentiation results. Because lipid accumulation is the endpoint of adipocyte differentiation, the quantification of lipids which have accumulated in cells upon treatment with the compound(s) of interest, will indicate the ability of that compound to trigger adipocyte differentiation. More importantly, the potency of that compound can be estimated as well based on the total amount of lipids accumulated. The amount of lipid measured at the end of the assay for each tested compound is here compared to that of Compound 73 at 0.1 μM, which is considered 100% (see FIG. 11A).
In the particular case of measuring the potential antagonistic activity of some compounds, the putative antagonist is combined together with an agonist (such as the PPARγ agonist BRL49653). Thus, the amount of lipids accumulated in response to BRL49653 (considered as 100% in this case), is decreased by the compound with antagonistic activity (see FIG. 11B).
Materials and Methods: Mouse embryo fibroblast 3T3-L1 cell line, from American Type Culture Collection (ATCC), was used as a model of adipocyte differentiation.
Growing medium (GM): DME Dulbecco's modified Eagle's medium containing 4500 mg/L glucose; 4 mM L-glutamine; 10 U/ml Pen-G; 10 mcg/ml and 10% Calf Serum (CS).
Differentiation medium (DM): DME Dulbecco's modified Eagle's medium containing 4500 mg/L glucose; 4 mM L-glutamine; 10 U/ml Pen-G; 10 mcg/ml and 10% Fetal Calf Serum (FCS). Cells are always kept at 10% CO2.
Cells were seeded at 3,000 cells/well in 96 well-tissue culture plates in growing medium.
Two days after reaching confluence, cells were treated with the different compounds of interest in DM (Day 0). Drugs were replaced every 2–3 days in DM. Differentiation was assessed after 7 days of treatment, by measuring the lipid content in the cells, using the Triglyceride (INFINITY) reagent (Quantitative assay). • Controls: All cells, including control cells (vehicle), are treated with the same volume of dimethyl sulfoxide (DMSO) never exceeding 0.1% final solvent concentration. As a positive control for differentiation, cells were treated with 10 μg insulin per ml and 2.5 μM dexamethasone (Ins/Dex).

AKT1/PKBα = biological target: T1, AKT1/PKBα (Homo sapiens, UniProt P31749); test: In vitro assay for AKT1/PKBα kinase activity inhibition; format: biochemical; details: at 5 μM, pre-incubation 10 minute at 30° C.
T1 construct: purchased Upstate 14-276
Experimental: The assay was performed using a similar approach as described by Standaert, Mary L., et al. J. Biol. Chem. 1999, 274, 25308–25316; and Aman, M. J. et al, J. Biol. Chem. 1998, 273, 33922–33928. The assay was performed using purified recombinant His-tagged AKT1/PKBα enzyme purchased from Upstate catalog # 14-276 following the manufacturer instruction. The assay is to measure phosphotransferase activity in purified His-tagged AKT1/PKBα. The purified enzyme is used to transfer the γ phosphate of [γ-32P]-ATP to a specific substrate, AKT/GSK peptide [RPRAATA] (upstate Catalog # 12-340). The phosphorylated substrate is then separated from the residual [γ-32P]ATP by using P81 phosphocellulose paper accompanied with extensive washing followed by quantitation using scintillation counter. The assay is linear for incubation times for up to 30 minutes and incorporation of up to 20% of total ATP. This enzyme assay is rapid, convenient and specific for AKT/PKB.
For testing the effect of Compound 2 on the AKT kinase activity, 0.3 μg AKT was pre-incubated with 1 μl of different Compound 2 stock concentration to give the final indicated concentration in total volume of 20 μl reaction buffer. As control 0.3 μg AKT was incubated with 1 μl Vehicle or alone in total volume of 20 μl reaction buffer. After a 10 minute incubation at 30° C., the kinase reaction was carried out according to the instruction of the manufacturer.

LXR = test: In vitro transactivation assay in CV-1 cells, antagonism of T0901317-induced Gal-LXR activation; format: cell-based; details: with 1 μM agonist T0901317
From the text: (§1) In vitro screens such as the transactivation assay can be used to measure the ability of a compound to inhibit a nuclear receptor regulating lipid or carbohydrate uptake, synthesis or metabolism. In the assay described herein compounds can be identified that can inhibit activation of the following nuclear receptors: LXR, PPARα, PPARγ and FXR. This activity can be useful to treat lipid disorders such as hypercholesteremia and obesity.
(§2) Cell line: Kidney Green Monkey CV-1 cells.
(§3) Growing culturing medium: Dulbecco's modified Eagle's medium (DMEM) supplememnted with 10% fetal calf serum (FCS).
(§4) Procedure: CV-1 cells were plated in 48 well-plate culture plates, at a density of 10,000 cells/well, 24 h prior to transfection. One to three hours before transfection, cells were fed with fresh medium. A modified calcium phosphate precipitation procedure was used for transient transfection (Pfahl, M. et al., 1990, Methods in Enzymology 189: 256).
(§5) Typically, 40 ng reporter plasmid and 20 ng of each receptor expression vector were mixed, together with 10 ng of β-galactosidase control plasmid (pCH110, Pharmacia, Piscataway, N.J.) and Bluescript plasmid to obtain a total of 400 ng DNA per well. To this mixture 1 μl of 2.5M CaCl2 and 10 μl of BBS buffer, pH 6.95, were added afterward. […]

PPARγ = biological target: T2, PPARγ (Homo sapiens, UniProt P37231); test: In vitro transactivation assay in CV-1 cells, antagonism of BRL49653-induced Gal-PPARγ activation; format: cell-based; details: with 1 μM agonist BRL49653, dose-dependent
T2 construct: expressed in transfected cells; host or cells: CV-1 (green monkey kidney) cells, transient calcium phosphate transfection
T2 sequence (P37231 238-503 limits assumed): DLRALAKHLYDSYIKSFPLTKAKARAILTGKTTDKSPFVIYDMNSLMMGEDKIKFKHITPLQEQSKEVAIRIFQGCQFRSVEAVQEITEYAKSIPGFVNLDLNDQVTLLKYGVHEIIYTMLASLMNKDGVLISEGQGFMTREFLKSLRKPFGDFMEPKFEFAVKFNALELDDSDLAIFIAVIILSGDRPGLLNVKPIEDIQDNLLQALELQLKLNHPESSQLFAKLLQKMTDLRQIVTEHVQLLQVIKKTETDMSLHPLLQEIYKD
From the text: as §1, §2, §3, §4, §5

T1 sequence (P31749 whole entry): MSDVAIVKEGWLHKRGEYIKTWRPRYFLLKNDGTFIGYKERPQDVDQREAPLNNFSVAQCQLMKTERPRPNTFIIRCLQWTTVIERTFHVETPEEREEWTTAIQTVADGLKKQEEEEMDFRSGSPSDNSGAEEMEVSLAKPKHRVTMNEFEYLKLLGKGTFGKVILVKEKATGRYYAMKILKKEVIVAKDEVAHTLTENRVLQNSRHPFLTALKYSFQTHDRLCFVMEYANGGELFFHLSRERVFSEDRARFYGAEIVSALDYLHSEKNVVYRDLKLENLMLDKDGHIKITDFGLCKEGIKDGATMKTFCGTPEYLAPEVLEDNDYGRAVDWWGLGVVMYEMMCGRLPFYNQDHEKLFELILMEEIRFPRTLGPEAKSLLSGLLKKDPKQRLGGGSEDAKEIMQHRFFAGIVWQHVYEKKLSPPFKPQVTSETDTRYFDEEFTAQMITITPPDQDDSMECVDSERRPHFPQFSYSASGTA

Row | SMILES | lipid accumulation / differentiation of 3T3-L1 cells by the compound alone (3T3-L1 cells) | inhibition of adipocyte differentiation / lipid accumulation induced by rosiglitazone (BRL49653) (3T3-L1 cells) | inhibition of AKT activity compared to Control or Vehicle (AKT1/PKBα) | other results
1 | COc1ccc(/C=C2\SC(=S)N(CC(=O)O)C2=O)cc1-c1cc2c(cc1C)C(C)(C)CCC2(C)C [Compound 1, {5-[4-Methoxy-3-(3,5,5,8,8-pentamethyl-5,6,7,8-tetrahydro-naphthalen-2-yl)-benzylidene]-4-oxo-2-thioxo-thiazolidin-3-yl}-acetic acid] | lacked that ability | potently inhibited |  | 
2 | COc1ncc(/C=C2\SC(=S)N(CC(=O)O)C2=O)cc1-c1cc2c(cc1C)C(C)(C)CCC2(C)C [Compound 3, {5-[6-Methoxy-5-(3,5,5,8,8-pentamethyl-5,6,7,8-tetrahydro-naphthalen-2-yl)-pyridin-3-ylmethylene]-4-oxo-2-thioxo-thiazolidin-3-yl}-acetic acid] |  |  | showed inhibition | 
3 | CCOc1ccc(-c2ccc(OC)c(C(C)(C)C)c2)cc1/C=C1\SC(=S)N(CC(=O)O)C1=O [Compound 67] |  |  | showed inhibition | 
4 | COc1cc2c(cc1-c1c(/C=C3\SC(=S)N(CC(=O)O)C3=O)cc(-c3ccccc3)cc1OC)C(C)(C)CCC2(C)C [Compound 8, {5-[5-Phenyl-3-methoxy-2-(3-methoxy-5,5,8,8-tetramethyl-5,6,7,8-tetrahydro-naphthalen-2-yl)-benzylidene]-4-oxo-2-thioxo-thiazolidin-3-yl}-acetic acid] | lacked the ability to differentiate 3T3-L1 cells by themselves | strongly inhibited |  | antagonism of T0901317-induced LXR activation (in words) (LXR): only antagonize the activation activity of BRL49653 for PPARγ; inhibition at 10 µM (PPARγ): 80 to 90%
5 | COc1ccc(/C=C2\SC(=S)NC2=O)cc1-c1cc2c(cc1C)C(C)(C)CCC2(C)C [Compound 71, reference compound] | induced lipid accumulation |  |  | 
6 | COc1cc2c(cc1-c1c(/C=C3\SC(=S)N(CC(=O)O)C3=O)cc(-c3ccccc3)cc1OC)C(C)(C)CCC2(C)C [Compound 72, reference compound] | induced lipid accumulation |  |  | 
7 | Cc1cc2c(cc1-c1cc(/C=C3\SC(=S)N(CC(=O)O)C3=O)ccc1OC(F)(F)F)C(C)(C)CCC2(C)C [Compound 2, {5-[4-Trifluoromethoxy-3-(3,5,5,8,8-pentamethyl-5,6,7,8-tetrahydronaphthalen-2-yl)-benzylidene]-4-oxo-2-thioxo-thiazolidin-3-yl}-acetic acid] | lacked that ability | potently inhibited | showed inhibition | 
8 | COc1ccc(/C=C2\SC(=O)N(CCc3ccccn3)C2=O)cc1-c1cc2c(cc1C)C(C)(C)CCC2(C)C [Compound 6, 5-[4-Methoxy-3-(3,5,5,8,8-pentamethyl-5,6,7,8-tetrahydro-naphthalen-2-yl)-benzylidene]-3-(2-pyridin-2-yl-ethyl)-thiazolidine-2,4-dione] |  |  |  | melting point: 170 to 171 °C
9 | CN(C)c1ccc(/C=C2\SC(=S)N(CC(=O)O)C2=O)cc1-c1cc2c(cc1N(C)C)C(C)(C)CCC2(C)C [Compound 10, {5-[4-Dimethylamino-3-(3-dimethylamino-5,5,8,8-tetramethyl-5,6,7,8-tetrahydro-naphthalen-2-yl)-benzylidene]-4-oxo-2-thioxo-thiazolidin-3-yl}-acetic acid] |  |  | showed inhibition | 
